Where a name gives a salt, the structure may show the parent alone.
Target: recombinant human AMPK complex 1 (containing α1β1γ1) (Homo sapiens, UniProt Q13131+Q9Y478)
Assay: […] (in vitro AMPK activation assay)
Format: biochemical
Settings: read-out: % Maximum AMP Activation of human AMPK Complex 1, recombinant human AMPK complex 1 (α1β1γ1); basal activity subtracted

Sequence of recombinant human AMPK complex 1 (containing α1β1γ1) (Q13131 whole entry): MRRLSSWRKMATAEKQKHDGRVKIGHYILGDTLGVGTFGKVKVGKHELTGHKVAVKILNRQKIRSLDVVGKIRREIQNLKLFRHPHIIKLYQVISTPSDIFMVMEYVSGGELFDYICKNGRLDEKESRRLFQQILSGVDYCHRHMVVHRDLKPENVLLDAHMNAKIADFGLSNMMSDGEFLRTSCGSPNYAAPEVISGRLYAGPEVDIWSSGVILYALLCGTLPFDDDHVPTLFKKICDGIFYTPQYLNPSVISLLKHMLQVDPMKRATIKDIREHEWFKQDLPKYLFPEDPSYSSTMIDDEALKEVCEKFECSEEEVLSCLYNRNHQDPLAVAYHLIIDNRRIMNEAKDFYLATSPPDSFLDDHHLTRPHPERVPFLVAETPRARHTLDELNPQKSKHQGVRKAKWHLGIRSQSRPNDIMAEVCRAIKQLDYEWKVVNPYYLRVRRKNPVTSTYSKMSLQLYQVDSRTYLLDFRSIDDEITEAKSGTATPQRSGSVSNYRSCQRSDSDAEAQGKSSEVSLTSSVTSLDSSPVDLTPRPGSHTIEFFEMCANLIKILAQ
Sequence of recombinant human AMPK complex 1 (containing α1β1γ1) (Q9Y478 whole entry): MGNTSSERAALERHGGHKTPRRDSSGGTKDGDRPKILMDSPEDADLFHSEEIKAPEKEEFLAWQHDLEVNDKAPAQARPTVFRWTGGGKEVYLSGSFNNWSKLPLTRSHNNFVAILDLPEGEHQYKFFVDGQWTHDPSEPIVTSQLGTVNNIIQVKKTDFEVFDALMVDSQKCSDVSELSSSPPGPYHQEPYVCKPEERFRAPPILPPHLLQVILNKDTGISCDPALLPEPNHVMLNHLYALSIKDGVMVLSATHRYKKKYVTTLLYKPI
Sequence of recombinant human AMPK complex 1 (containing α1β1γ1) (P54619 whole entry partner): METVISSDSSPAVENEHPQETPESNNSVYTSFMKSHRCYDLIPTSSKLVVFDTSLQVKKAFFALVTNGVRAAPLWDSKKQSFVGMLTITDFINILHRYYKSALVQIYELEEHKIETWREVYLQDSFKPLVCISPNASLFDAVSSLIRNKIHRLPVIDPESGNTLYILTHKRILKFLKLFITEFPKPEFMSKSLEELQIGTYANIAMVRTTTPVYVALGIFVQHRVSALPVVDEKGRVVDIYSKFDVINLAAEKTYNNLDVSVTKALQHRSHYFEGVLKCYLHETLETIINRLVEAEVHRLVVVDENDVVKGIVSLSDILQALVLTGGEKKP

| SMILES | Emax |
| --- | --- |
| Cc1ccc(Oc2nc3cc(-c4ccc(C(F)(F)F)cc4)c(Cl)cc3[nH]2)cc1C(=O)O [Example 337, Ammonium 5-({6-chloro-5-[4-(trifluoromethyl)phen-yl]-1H-benzimidazol-2-yl}oxy)-2-methylbenzoate] | > 80% |
| O=C(O)Cn1nnnc1Sc1nc2cc(-c3ccc(-c4ccccc4)cc3)c(Cl)cc2[nH]1 [Example 55, [5-(5-biphenyl-4-yl-6-chloro-1H-benzo-imidazol-2-ylsulfanyl)-tetrazol-1-yl]-acid, ammonium salt] | > 80% |
| CCCCc1ccc(-c2cc3nc(Oc4ccc(C)c(C(=O)O)c4)[nH]c3cc2Cl)cc1 [Example 344, Ammonium 5-{[5-(4-butylphenyl)-6-chloro-1H-benzimidazol-2-yl]oxy}-2-methylbenzoate] | > 80% |

Same assay, conditions: recombinant human AMPK complex 1 (α1β1γ1); basal activity subtracted; read-out: % Maximum AMP Activation of human AMPK Complex 1

| SMILES | Emax |
| --- | --- |
| Cc1ccc(Oc2nc3cc(-c4ccc(N(C)C)c(F)c4)c(Cl)cc3[nH]2)cc1C(=O)O [Example 296, 2-(3-carboxy-4-methylphenoxy)-6-chloro-5-[4-(dimethylamino)-3-fluorophenyl]-1H-3,1-benzimidazol-3-ium chloride] | > 80% |
| O=C(O)C(O)c1ccc(Oc2nc3cc(-c4ccc(-c5ccccc5)cc4)c(Cl)cc3[nH]2)cc1 (stereo not shown) [Example 20, [4-(5-Biphenyl-4-yl-6-chloro-1H-benzoimidazol-2-yloxy)-phenyl]-hydroxy-acetic acid] | > 80% |
| Cc1ccc(Oc2nc3cc(-c4cnc5ccccc5c4)c(Cl)cc3[nH]2)cc1C(=O)O [Example 148, 2-(3-carboxy-4-methylphenoxy)-6-chloro-5-quinolin-3-yl-1H-3,1-benzimidazol-3-ium chloride] | > 80% |
| N#Cc1cccc(Oc2nc3cc(-c4ccc(-c5ccccc5)cc4)c(Cl)cc3[nH]2)c1 [Example 42, 3-(5-Biphenyl-4-yl-6-chloro-1H-benzoimidazol-2-yloxy)-benzonitrile] | > 80% |
| O=C(NS(=O)(=O)c1ccccc1)c1cccc(Oc2nc3cc(-c4ccc(-c5ccccc5)cc4)c(Cl)cc3[nH]2)c1 [Example 222, N-[3-(5-Biphenyl-4-yl-6-chloro-1H-benzoimidazol-2-yloxy)-benzoyl]-benzenesulfonamide] | > 80% |
| COC(=O)c1cc(Oc2nc3cc(C#Cc4cccnc4)c(Cl)cc3[nH]2)ccc1C [Example 133, 5-(6-Chloro-5-pyridin-3-ylethynyl-1H-benzoimidazol-2-yloxy)-2-methyl-benzoic acid methyl ester] | > 80% |
| O=C(O)c1ccc(F)c(Oc2nc3cc(-c4ccc(-c5ccccc5)cc4)c(Cl)cc3[nH]2)c1 [Example 209, 3-(5-Biphenyl-4-yl-6-chloro-1H-benzoimidazol-2-yloxy)-4-fluoro-benzoic acid] | > 80% |
| Cc1cc(Oc2nc3cc(-c4ccc(-c5ccccc5O)cc4)c(Cl)cc3[nH]2)cc(C(=O)O)c1 [Example 53, 3-[6-Chloro-5-(2′-hydroxy-biphenyl-4-yl)-1H-benzoimidazol-2-yloxy]-5-methyl-benzoic acid] | > 80% |
| Cc1ccc(Oc2nc3cc(C#Cc4ccc(Cl)cc4)c(Cl)cc3[nH]2)cc1C(=O)O [Example 112, 5-[6-Chloro-5-(4-chloro-phenylethynyl)-1H-benzoimidazol-2-yloxy]-2-methyl-benzoic acid] | > 80% |
| Cc1ccc(Oc2nc3cc(-c4ccc(N5CCNCC5)cc4)c(Cl)cc3[nH]2)cc1C(=O)O [Example 178, 5-[6-Chloro-5-(4-piperazin-1-yl-phenyl)-1H-benzoimidazol-2-yloxy]-2-methyl-benzoic acid] | > 80% |
| Cc1ccc(Oc2nc3cc(-c4ccc5nnn(C)c5c4)c(Cl)cc3[nH]2)cc1C(=O)O [Example 149, 5-[6-Chloro-5-(3-methyl-3H-benzotriazol-5-yl)-1H-benzoimidazol-2-yloxy]-2-methyl-benzoic acid] | > 80% |
| COC(=O)c1cc(Oc2nc3cc(-c4ccc(-c5ccccc5F)cc4)c(Cl)cc3[nH]2)ccc1C [Example 195, Methyl 5-{[6-chloro-5-(2′-fluorobiphenyl-4-yl)-1H-benzimidazol-2-yl]oxy}-2-methylbenzoate] | > 80% |
| Cc1ccc(Oc2nc3cc(-c4ccc(C(=O)O)c5c4c(C)cn5C)c(Cl)cc3[nH]2)cc1C(=O)O [Example 270, 4-[2-(3-Carboxy-4-methyl-phenoxy)-6-chloro-1H-benzoimidazol-5-yl]-1,3-dimethyl-1H-indole-7-carboxylic acid] | > 80% |
| Cc1ccc(Oc2nc3cc(-c4ccc5ncccc5c4)c(Cl)cc3[nH]2)cc1C(=O)O [Example 150, 2-(3-carboxy-4-methylphenoxy)-6-chloro-5-quinolin-6-yl-1H-3,1-benzimidazol-3-ium chloride] | > 80% |
| Cc1ccc(Oc2nc3cc(-c4ccc(C#N)cc4)c(Cl)cc3[nH]2)cc1C(=O)O [Example 180, 5-[6-Chloro-5-(4-cyano-phenyl)-1H-benzoimidazol-2-yloxy]-2-methyl-benzoic acid] | > 80% |
| COc1ccccc1-c1ccc(-c2cc3nc(Oc4ccc(C)c(C(=O)O)c4)[nH]c3cc2Cl)cc1 [Example 194, 5-{[6-chloro-5-(2′-methoxybiphenyl-4-yl)-1H-benzimidazol-2-yl]oxy}-2-methylbenzoic acid] | > 80% |
| Cc1ccc(Oc2nc3cc(-c4ccc(C(=O)O)c5c4ccn5C)c(Cl)cc3[nH]2)cc1C(=O)O [Example 271, 4-[2-(3-Carboxy-4-meihyl-phenoxy)-6-chloro-1H-benzoimidazol-5-yl]-1-methyl-1H-indole-7-carboxylic acid] | > 80% |

| SMILES | Emax |
| --- | --- |
| Cc1ccc(Oc2nc3cc(-c4ccc(-c5ccn[nH]5)cc4)c(F)cc3[nH]2)cc1C(=O)O [Example 246, 5-{6-Fluoro-5-[4-(2H-pyrazol-3-yl)-phenyl]-1H-benzoimidazol-2-yloxy}-2-methyl-benzoic acid] | > 80% |
| Cc1ccc(Oc2nc3cc(-c4cncc5ccccc45)c(Cl)cc3[nH]2)cc1C(=O)O [Example 336, 2-(3-carboxy-4-methylphenoxy)-6-chloro-5-isoquinolin-4-yl-1H-3,1-benzimidazol-3-ium formate] | > 80% |
| Cc1ccc(Oc2nc3cc(-c4ccc(C(N)=O)cc4)c(Cl)cc3[nH]2)cc1C(=O)O [Example 242, 5-[5-(4-Carbamoyl-phenyl)-6-chloro-1H-benzoimidazol-2-yloxy]-2-methyl-benzoic acid] | > 80% |
| Cc1ccc(Oc2nc3cc(-c4ccc(-c5ccccc5)cc4)c(Cl)cc3[nH]2)cc1C(=O)NS(C)(=O)=O [Example 221, N-[5-(5-Biphenyl-4-yl-6-chloro-1H-benzoimidazol-2-yloxy)-2-methyl-benzoyl]-methanesulfonamide] | > 80% |
| Cc1ccc(Oc2nc3cc(-c4ccc(-c5ccccc5C)cc4)c(Cl)cc3[nH]2)cc1C(=O)O [Example 193, 5-{[6-chloro-5-(2′-methylbiphenyl-4-yl)-1H-benzimidazol-2-yl]oxy}-2-methylbenzoic acid] | > 80% |
| CCc1ccc(Oc2nc3cc(-c4ccc(-c5ccccc5)cc4)c(Cl)cc3[nH]2)cc1C(=O)O [Example 212, 5-(5-Biphenyl-4-yl-6-chloro-1H-benzoimidazol-2-yloxy)-2-ethyl-benzoic acid] | > 80% |
| O=C(O)c1ccc(COc2nc3cc(-c4ccc(-c5ccccc5)cc4)c(Cl)cc3[nH]2)cc1 [Example 226, 4-(5-Biphenyl-4-yl-6-chloro-1H-benzoimidazol-2-yloxymethyl)-benzoic acid] | > 80% |
| Cc1ccc(Oc2nc3cc(-c4ccc5c(c4)CCN5CCO)c(Cl)cc3[nH]2)cc1C(=O)O [Example 319, 5-({6-chloro-5-[1-(2-hydroxyethyl)-2,3-dihydro-1H-indol-5-yl]-1 H-benzimidazol-2-yl}oxy)-2-methylbenzoic acid] | > 80% |
| O=C(O)c1cncc(Oc2nc3cc(-c4ccc(-c5ccccc5)cc4)c(Cl)cc3[nH]2)c1 [Example 34, 5-(5-Biphenyl-4-yl-6-chloro-1H-benzoimidazol-2-yloxy)-nicotinic acid] | > 80% |
| COC(=O)c1cc(Oc2nc3cc(-c4ccc(-c5ccccc5)cc4)c(Cl)cc3[nH]2)cc(C)c1C [Example 14, 5-(5-Biphenyl-4-yl-6-chloro-1H-benzoimidazol-2-yloxy)-2,3-dimethyl-benzoic acid methyl ester] | > 80% |
| Cn1ccc2cc(-c3cc4nc(Oc5ccc(CC(=O)O)cc5)[nH]c4cc3Cl)ccc21 [Example 243, {4-[6-Chloro-5-(1-methyl-1H-indol-5-yl)-1H-benzoimidazol-2-yloxy]-phenyl}-acetic acid] | > 80% |
| CCOC(=O)c1c(C)[nH]c2ccc(Oc3nc4cc(-c5ccc(-c6ccccc6)cc5)c(Cl)cc4[nH]3)cc12 [Example 4, 5-(5-Biphenyl-4-yl-6-chloro-1H-benzoimidazol-2-yloxy)-2-methyl-1H-indole-3-carboxylic acid ethyl ester] | > 80% |
| COC(=O)c1cc(Oc2nc3cc(C#Cc4ccc(OC(F)(F)F)cc4)c(Cl)cc3[nH]2)ccc1C [Example 98, 5-[6-Chloro-5-(4-trifluoromethoxy-phenylethynyl)-1H-benzoimidazol-2-yloxy]-2-methyl-benzoic acid methyl ester] | > 80% |
| COc1ccccc1C#Cc1cc2nc(Oc3ccc(C)c(C(=O)O)c3)[nH]c2cc1Cl [Example 106, 5-[6-Chloro-5-(2-methoxy-phenylethynyl)-1H-benzoimidazol-2-yloxy]-2-methyl-benzoic acid] | > 80% |
| Cc1ccc(Oc2nc3cc(-c4ccc(-c5cccnc5)cc4)c(Cl)cc3[nH]2)cc1C(=O)O [Example 169, 5-[6-Chloro-5-(4-pyridin-3-yl-phenyl)-1H-benzoimidazol-2-yloxy]-2-methyl-benzoic acid] | > 80% |
| Cc1ccc(Oc2nc3cc(C#Cc4ccc(C#N)cc4)c(Cl)cc3[nH]2)cc1C(=O)O [Example 92, 5-[6-Chloro-5-(4-cyano-phenylethynyl)-1H-benzoimidazol-2-yloxy]-2-methyl-benzoic acid] | > 80% |
| COc1cccc(-c2ccc(-c3cc4nc(Oc5ccc(C)c(C(=O)O)c5)[nH]c4cc3Cl)cc2)c1 [Example 187, 5-{[6-chloro-5-(3′-methoxybiphenyl-4-yl)-1H-benzimidazol-2-yl]oxy}-2-methylbenzoic acid] | > 80% |

Reference: patent US8394969B2, “Cyclic benzimidazole derivatives useful as anti-diabetic agents” (Merck Sharp & Dohme Corp., priority 2008, dated 2013)
